# Like-named read-outs stand apart in the source and are kept apart here.
# What was measured:
# Experiment in all cases: MIC determination by in vitro antifungal assay
# [1] = test system: A. fumigatus NRRL 5109 (R); type: cell-based, Aspergillus fumigatus; details: strain R = A. fumigatus NRRL 5109
# Experimental: (§1) 10 mg/mL stock solutions of compounds 1a-9j were prepared in dimethyl sulfoxide (DMSO) and were stored at −20° C. in the dark. The antifungal agent amphotericin B (AmB) was purchased from VWR (Radnor PA, USA). AmB was dissolved in DMSO at a final concentration of 5 mg/mL and was stored at −20° C., protected from light. Candida albicans American Type Culture Collection (ATCC) 10231 (strain A), C. albicans ATCC 64124 (B), and C. albicans ATCC MYA-2876 (C) were obtained from Utah State University. C. albicans ATCC 90819 (D), C. albicans ATCC MYA-2310 (E), C. albicans ATCC MYA-1237 (F), C. albicans ATCC MYA-1003 (G), Candida glabrata ATCC 2001 (H), Candida krusei ATCC 6258 (I), Candida parapsilosis ATCC 22019 (J), Cryptococcus neoformans ATCC MYA-895 (M), Aspergillus terreus ATCC MYA-3633 (N), and Aspergillus flavus ATCC MYA-3631 (0) were obtained from the American Type Culture Collection (ATCC; Manassas, VA, USA). Aspergillus nidulans ATCC 38163 (P) was obtained from University of Kentucky. Clinically derived Aspergillus fumigatus NRRL 163 (Q), A. fumigatus NRRL 5109 (R), and A. fumigatus NRRL 6113 (S) were obtained from Northern Regional Research Laboratory (NRRL). Candida auris 384 (K), C. auris 390 (L), and fungal strains 381-400 (including 10 C. auris (AR Bank #381-390), 3 Candida duobushaemulonii (AR Bank #391, AR Bank #392, and AR Bank #394), 2 Candida haemulonii (AR Bank #393 and AR Bank #395), 1 Kodameae ohmeri (AR Bank #396), 1 C. krusei (AR Bank #397), 1 Candida lusitaniae (AR Bank #398), and 2 Saccharomyces cerevisiae strains (AR Bank #399 and AR Bank #400)) were part of a larger fungal library from the AR Bank maintained by the Centers for Disease Control and Prevention (CDC; Atlanta, GA, USA). Filamentous fungi and yeasts were cultivated at 35° C. in RPMI 1640 medium (with L-glutamine, without sodium bicarbonate, Sigma-Aldrich, St. Louis, MO) buffered to a pH of 7.0 with 0.165 M morpholinepropanesulfonic acid (MOPS) buffer (Sigma-Aldrich). For cytotoxicity assays, HepG2 and the mouse macrophage cell line J774A.1 were obtained from University of Kentucky. The human embryonic kidney cell line, HEK-293, was bought from the ATCC. Mammalian cells were grown in Dulbecco's Modified Eagle's Medium (DMEM) (from VWR) with 10% fetal bovine serum (FBS) (from VWR) and 1% Pen/Strep (from ATCC). Cell lines were cultured at 37° C. with 5% CO2 and passaged by trypsinization with 0.05% trypsin: 0.53 mM EDTA (from Sigma-Aldrich).
# (§2) The MIC values of compounds 1a-9j against yeast cells (strains A-P and 381-400) were determined in 96-well plates as described in the CLSI documents M27-A3 and M38-A2 with minor modifications.^2 A single colony of freshly prepared yeast cells was used to inoculate 5 mL of yeast extract peptone dextrose (YPD) broth prior to incubation overnight with shaking at 200 rpm at 35° C. From the actively growing yeast culture, 100 µL were then transferred to 900 μL of RPMI 1640 medium and re-adjusted to achieve OD600 of 0.12 (˜1×10^6 CFU/mL). The cell suspension was further diluted to achieve 1:100 in RPMI 1640 medium. 100 μL of cells were added to the wells of a 96-well microtiter plates that contained 100 µL of the compound solution to obtain concentrations of 0.06-31.3 μg/mL of compounds 1a-9j or AmB prior to incubation for 48 h at 35° C.
# (§3) Finally, the activity of these monohydrazides was explored against […] non-Candida strains: Cryptococcus neoformans ATCC MYA-895 (M), Aspergillus terreus ATCC MYA-3633 (N), Aspergillus flavus ATCC MYA-3631 (O), Aspergillus nidulans ATCC 38163 (P), Aspergillus fumigatus NRRL 163 (Q), A. fumigatus NRRL 5109 (R), and A. fumigatus NRRL 6113 (S) (Tables 1A and 1B). The double dilution method was used with concentrations ranging from 0.06 to 31.3 j·tg mL^−1 for monohydrazides 1a-9j, and the commercially available positive antifungal control amphotericin B (AmB).
# [2] = test system: A. fumigatus NRRL 6113 (S); type: cell-based, Aspergillus fumigatus; details: for MIC: strain S = A. fumigatus NRRL 6113
# Experimental: as §1, §2, §3
# [3] = test system: Aspergillus fumigatus NRRL 163 (Q); type: cell-based; details: strain Q = A. fumigatus NRRL 163
# Method in brief: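 CLSI M27-A3/M38-A2 microdilution, modified. Medium: RPMI 1640 + 0.165 M MOPS, pH 7.0. Compound range 0.06-31.3 μg/mL, double dilution. Incubation 48 h, 35° C. Yeast inoculum: OD600 0.12 (˜1×10^6 CFU/mL), then 1:100.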
# [4] = Aspergillus fumigatus, NRRL5109, read-out: MIC
# [5] = Aspergillus fumigatus, NRRL6113, read-out: MIC
# [6] = Aspergillus fumigatus, NRRL163, read-out: MIC
Compound,"MIC [1, 4] [µg/mL]","MIC [2, 5] [µg/mL]","MIC [3, 6] [µg/mL]",MIC (highest activity against strain S) [2] [j·tg mL^−1],MIC [1] [μg/mL^−1],MIC [2] [μg/mL^−1],MIC [3] [μg/mL^−1]
O=C(NNc1ccc(F)cc1F)c1cnccn1 [Compound 9g],> 31.3,> 31.3,> 31.3,,,,
O=C(NNc1ccc(F)cc1)c1ccccn1 [Compound 2d],7.8,15.6,31.3,15.6,,,
COc1ccc(NNC(=O)c2ccc(F)cn2)cc1 [Compound 3f],,,,,>31.3,>31.3,>31.3
O=C(NNc1cccc(F)c1)c1nc(F)ccc1F [Compound 8a],,,,,>31.3,>31.3,>31.3
COc1cccc(NNC(=O)c2ccc(Br)cn2)c1 [Compound 4c],7.8,> 31.3,15.6,,,,
O=C(NNc1cccc(F)c1)c1ccc(F)cn1 [Compound 3a],,,,,>31.3,>31.3,>31.3
O=C(NNc1ccc(Cl)cc1)c1ccccn1 [Compound 2e],,,,15.6,7.8,15.6,>31.3
O=C(NNc1cccc(Cl)c1)c1ccccn1 [Compound 2b],,,,,>31.3,>31.3,>31.3
O=C(NNc1ccc(F)cc1)c1cccc(F)n1 [Compound 5d],15.6,15.6,31.3,,,,
O=C(NNc1cccc(F)c1)c1ccccn1 [Compound 2a],,,,,>31.3,>31.3,>31.3
O=C(NNc1cc(F)cc(F)c1)c1ccccn1 [Compound 2i],≤ 0.06,31.3,≤ 0.06,,,,
COc1ccc(NNC(=O)c2ncc(F)cc2F)cc1 [Compound 7f],31.3,31.3,31.3,,,,
O=C(NNc1ccc(F)cc1)c1ccc(F)cc1F [Compound 1d],> 31.3,> 31.3,> 31.3,,,,
O=C(NNc1ccc(F)cc1)c1ncc(F)cc1F [Compound 7d],> 31.3,> 31.3,> 31.3,,,,
COc1ccc(NNC(=O)c2cnccn2)cc1 [Compound 9f],31.3,31.3,31.3,,,,
COc1cccc(NNC(=O)c2ccc(F)cn2)c1 [Compound 3c],,,,,>31.3,>31.3,>31.3
O=C(NNc1cccc(F)c1)c1ccc(Br)cn1 [Compound 4a],,,,,>31.3,>31.3,>31.3

Compound,"MIC [1, 4] [µg/mL]","MIC [2, 5] [µg/mL]","MIC [3, 6] [µg/mL]",MIC (highest activity against strain S) [2] [j·tg mL^−1],MIC [1] [μg/mL^−1],MIC [2] [μg/mL^−1],MIC [3] [μg/mL^−1]
COc1cccc(NNC(=O)c2ccccn2)c1 [Compound 2c],,,,,3.9,>31.3,7.8
COc1ccc(NNC(=O)c2ccccn2)cc1 [Compound 2f],> 31.3,31.3,> 31.3,,,,
O=C(NNc1ccc(F)cc1)c1nc(F)ccc1F [Compound 8d],15.6,> 31.3,31.3,,,,
O=C(NNc1cc(Cl)cc(Cl)c1)c1ccccn1 [Compound 2j],> 31.3,> 31.3,> 31.3,,,,
O=C(NNc1cccc(F)c1)c1cnccn1 [Compound 9a],,,,,>31.3,>31.3,>31.3
COc1cccc(NNC(=O)c2cnccn2)c1 [Compound 9c],7.8,> 31.3,15.6,,,,
COc1ccc(NNC(=O)c2ccc(F)cc2F)cc1 [Compound 1f],> 31.3,> 31.3,> 31.3,,,,
O=C(NNc1ccc(Cl)cc1)c1cccc(F)n1 [Compound 5e],,,,15.6,,,
O=C(NNc1cccc(Cl)c1)c1cnccn1 [Compound 9b],> 31.3,> 31.3,> 31.3,,,,
O=C(NNc1ccc(F)cc1F)c1ccccn1 [Compound 2g],15.6,31.3,> 31.3,,,,
"C[C@@H]1[C@H](O)[C@@H](C)/C=C/C=C/C=C/C=C/C=C/C=C/C=C/[C@H](O[C@@H]2O[C@H](C)[C@@H](O)[C@H](N)[C@@H]2O)C[C@@H]2O[C@](O)(C[C@@H](O)C[C@@H](O)[C@H](O)CC[C@@H](O)C[C@@H](O)CC(=O)O[C@H]1C)C[C@H](O)[C@H]2C(=O)O [AmB, amphotericin B, reference compound]",,,,,0.98,1.95,0.98
O=C(NNc1cc(F)ccc1F)c1ccccn1 [Compound 2h],15.6,> 31.3,> 31.3,,,,
O=C(NNc1cccc(F)c1)c1ncc(F)cc1F [Compound 7a],,,,,>31.3,>31.3,>31.3
O=C(NNc1cccc(F)c1)c1ccc(F)cc1F [Compound 1a],,,,,>31.3,>31.3,>31.3
COc1ccc(NNC(=O)c2cccc(F)n2)cc1 [Compound 5f],> 31.3,15.6,> 31.3,15.6,,,
COc1ccc(NNC(=O)c2nc(F)ccc2F)cc1 [Compound 8f],15.6,31.3,31.3,,,,
